Experimental data taken from ChEMBL document CHEMBL4396872, “Pharmacokinetics-Driven Optimization of 4(3 H)-Pyrimidinones as Phosphodiesterase Type 5 Inhibitors Leading to TPN171, a Clinical Candidate for the Treatment of Pulmonary Arterial Hypertension” (J Med Chem, 2019).
Calls of active or inactive are those of the source. The calls are words filed in the database; no cut-off is given here.

Key:
[1] = Half-life in Sprague-Dawley rat at 1 mg/kg, po measured up to 24 hrs by LC-MS/MS analysis; format: ADME, organism-based; details: in vivo
[2] = Half-life in Beagle dog at 0.5 mg/kg, po measured up to 24 hrs by LC-MS/MS analysis; format: ADME, organism-based, Canis lupus familiaris; details: in vivo
[3] = AUC (0 to infinity) in Beagle dog at 0.5 mg/kg, po measured up to 24 hrs by LC-MS/MS analysis; format: ADME, organism-based, Canis lupus familiaris; set-up: dose 0.5 mg/kg, time infinity, route oral; details: in vivo
[4] = Volume of distribution at steady state in Beagle dog at 0.5 mg/kg, iv measured up to 24 hrs by LC-MS/MS analysis; format: ADME, organism-based, Canis lupus familiaris; details: in vivo, read-out: Vdss
[5] = Metabolic stability in human liver microsomes assessed as parent compound remaining at 1 uM in presence of NADPH after 30 mins by LC-MS/MS analysis; format: ADME, Microsome; details: read-out: Stability
[6] = Half-life in Sprague-Dawley rat at 1 mg/kg, iv measured up to 24 hrs by LC-MS/MS analysis; format: ADME, organism-based; details: in vivo
[7] = AUC (0 to t) in Beagle dog at 0.5 mg/kg, po measured up to 24 hrs by LC-MS/MS analysis; format: ADME, organism-based, Canis lupus familiaris; set-up: time < 24 hr, dose 0.5 mg/kg, route oral; details: in vivo
Phosphodiesterase 1 = Phosphodiesterase 1 (Homo sapiens, UniProt P54750+Q01064+Q14123); test: Inhibition of N-terminal GST-tagged human PDE1 expressed in baculovirus infected sf9 cells using [3H]cAMP as substrate measured after 30 mins by scintillation proximity assay
[8] = AUC (0 to t) in Beagle dog at 0.5 mg/kg, iv measured up to 24 hrs by LC-MS/MS analysis; format: ADME, organism-based, Canis lupus familiaris; set-up: time < 24 hr, dose 0.5 mg/kg, route intravenous; details: in vivo
Rattus norvegicus [9] = test: Antihypertensive activity in spontaneously hypertensive rat assessed as reduction in mean arterial pressure at 20 mg/kg administered via single gavage measured up to 24 hrs; format: functional, organism-based
[10] = Clearance in Beagle dog at 0.5 mg/kg, iv measured up to 24 hrs by LC-MS/MS analysis; format: ADME, organism-based, Canis lupus familiaris; details: in vivo
[11] = Terminal half life in human at 5 mg, po administered once daily measured under phase 1 clinical trials; format: ADME, organism-based; details: in vivo, read-out: beta t1/2 (converted)
[12] = AUC (0 to infinity) in Sprague-Dawley rat at 1 mg/kg, iv measured up to 24 hrs by LC-MS/MS analysis; format: ADME, organism-based; set-up: dose 1 mg/kg, time infinity, route intravenous; details: in vivo
[13] = MRT in Sprague-Dawley rat at 1 mg/kg, iv measured up to 24 hrs by LC-MS/MS analysis; format: ADME, organism-based; details: in vivo
[14] = biological target: T1, cGMP-specific 3',5'-cyclic phosphodiesterase (Homo sapiens, UniProt O76074)
[15] = biological target: T1, cGMP-specific 3',5'-cyclic phosphodiesterase; remark: listed apart in the source
[16] = MRT in Sprague-Dawley rat at 1 mg/kg, po measured up to 24 hrs by LC-MS/MS analysis; format: ADME, organism-based; details: in vivo
[17] = Cmax in Sprague-Dawley rat at 1 mg/kg, po measured up to 24 hrs by LC-MS/MS analysis; format: ADME, organism-based; set-up: dose 1 mg/kg, route oral; details: in vivo
[18] = Cmax in Beagle dog at 0.5 mg/kg, po measured up to 24 hrs by LC-MS/MS analysis; format: ADME, organism-based, Canis lupus familiaris; set-up: dose 0.5 mg/kg, route oral; details: in vivo
Rattus norvegicus [19] = test: Antihypertensive activity in spontaneously hypertensive rat assessed as reduction in mean arterial pressure at 20 mg/kg administered via single gavage and measured at 2 hrs; format: functional, organism-based
[20] = Tmax in Sprague-Dawley rat at 1 mg/kg, po measured up to 24 hrs by LC-MS/MS analysis; format: ADME, organism-based; details: in vivo
Rattus norvegicus [21] = test: […] activity in MCT-induced pulmonary arterial hypertension Sprague-Dawley rat model assessed as reduction in mean pulmonary artery pressure at 25 mg/kg administered once daily for 21 days starting from 21 days post-MCT challenge by right cardiac catheter method; format: functional, organism-based
[22] = Tmax in Beagle dog at 0.5 mg/kg, po measured up to 24 hrs by LC-MS/MS analysis; format: ADME, organism-based, Canis lupus familiaris; details: in vivo
[23] = Volume of distribution at steady state in Sprague-Dawley rat at 1 mg/kg, iv measured up to 24 hrs by LC-MS/MS analysis; format: ADME, organism-based; details: in vivo, read-out: Vdss
[24] = Oral bioavailability Beagle dog at 0.5 mg/kg measured up to 24 hrs by LC-MS/MS analysis; format: ADME, organism-based, Canis lupus familiaris; details: in vivo
[25] = biological target: Cone cGMP-specific 3',5'-cyclic phosphodiesterase subunit alpha' (Homo sapiens, UniProt P51160); test: Inhibition of N-terminal GST-tagged human PDE6C expressed in baculovirus infected sf9 cells using [3H]cGMP as substrate measured after 30 mins by scintillation proximity assay
[26] = MRT in Beagle dog at 0.5 mg/kg, po measured up to 24 hrs by LC-MS/MS analysis; format: ADME, organism-based, Canis lupus familiaris; details: in vivo
[27] = AUC (0 to t) in Sprague-Dawley rat at 1 mg/kg, iv measured up to 24 hrs by LC-MS/MS analysis; format: ADME, organism-based; set-up: time < 24 hr, dose 1 mg/kg, route intravenous; details: in vivo
Rattus norvegicus [28] = test: […] activity in MCT-induced pulmonary arterial hypertension Sprague-Dawley rat model assessed as reduction in mean pulmonary artery pressure at 1 mg/kg administered once daily for 21 days starting from 21 days post-MCT challenge by right cardiac catheter method; format: functional, organism-based
Rattus norvegicus [29] = test: […] activity in MCT-induced pulmonary arterial hypertension Sprague-Dawley rat model assessed as reduction in mean pulmonary artery pressure at 100 mg/kg administered once daily for 21 days starting from 21 days post-MCT challenge by right cardiac catheter method; format: functional, organism-based
[30] = AUC (0 to infinity) in Sprague-Dawley rat at 1 mg/kg, po measured up to 24 hrs by LC-MS/MS analysis; format: ADME, organism-based; set-up: dose 1 mg/kg, route oral, time infinity; details: in vivo
[31] = Clearance in Sprague-Dawley rat at 1 mg/kg, iv measured up to 24 hrs by LC-MS/MS analysis; format: ADME, organism-based; details: in vivo
[32] = biological target: T1, cGMP-specific 3',5'-cyclic phosphodiesterase; remark: listed apart in the source
[33] = biological target: Dual 3',5'-cyclic-AMP and -GMP phosphodiesterase 11A (Homo sapiens, UniProt Q9HCR9); test: Inhibition of N-terminal GST-tagged human PDE11A4 expressed in baculovirus infected sf9 cells using [3H]cGMP as substrate measured after 30 mins by scintillation proximity assay
[34] = AUC (0 to infinity) in Beagle dog at 0.5 mg/kg, iv measured up to 24 hrs by LC-MS/MS analysis; format: ADME, organism-based, Canis lupus familiaris; set-up: dose 0.5 mg/kg, time infinity, route intravenous; details: in vivo
[35] = AUC (0 to t) in Sprague-Dawley rat at 1 mg/kg, po measured up to 24 hrs by LC-MS/MS analysis; format: ADME, organism-based; set-up: time < 24 hr, dose 1 mg/kg, route oral; details: in vivo
[36] = MRT in Beagle dog at 0.5 mg/kg, iv measured up to 24 hrs by LC-MS/MS analysis; format: ADME, organism-based, Canis lupus familiaris; details: in vivo
Rattus norvegicus [37] = test: Antihypertensive activity in spontaneously hypertensive rat assessed as reduction in mean arterial pressure at 20 mg/kg administered via single gavage and measured at 4 hrs; format: functional, organism-based
[38] = Oral bioavailability in Sprague-Dawley rat at 1 mg/kg measured up to 24 hrs by LC-MS/MS analysis; format: ADME, organism-based; details: in vivo
[39] = Half-life in Beagle dog at 0.5 mg/kg, iv measured up to 24 hrs by LC-MS/MS analysis; format: ADME, organism-based, Canis lupus familiaris; details: in vivo

Dual 3',5'-cyclic-AMP and -GMP phosphodiesterase 11A, sequence (Q9HCR9 whole entry): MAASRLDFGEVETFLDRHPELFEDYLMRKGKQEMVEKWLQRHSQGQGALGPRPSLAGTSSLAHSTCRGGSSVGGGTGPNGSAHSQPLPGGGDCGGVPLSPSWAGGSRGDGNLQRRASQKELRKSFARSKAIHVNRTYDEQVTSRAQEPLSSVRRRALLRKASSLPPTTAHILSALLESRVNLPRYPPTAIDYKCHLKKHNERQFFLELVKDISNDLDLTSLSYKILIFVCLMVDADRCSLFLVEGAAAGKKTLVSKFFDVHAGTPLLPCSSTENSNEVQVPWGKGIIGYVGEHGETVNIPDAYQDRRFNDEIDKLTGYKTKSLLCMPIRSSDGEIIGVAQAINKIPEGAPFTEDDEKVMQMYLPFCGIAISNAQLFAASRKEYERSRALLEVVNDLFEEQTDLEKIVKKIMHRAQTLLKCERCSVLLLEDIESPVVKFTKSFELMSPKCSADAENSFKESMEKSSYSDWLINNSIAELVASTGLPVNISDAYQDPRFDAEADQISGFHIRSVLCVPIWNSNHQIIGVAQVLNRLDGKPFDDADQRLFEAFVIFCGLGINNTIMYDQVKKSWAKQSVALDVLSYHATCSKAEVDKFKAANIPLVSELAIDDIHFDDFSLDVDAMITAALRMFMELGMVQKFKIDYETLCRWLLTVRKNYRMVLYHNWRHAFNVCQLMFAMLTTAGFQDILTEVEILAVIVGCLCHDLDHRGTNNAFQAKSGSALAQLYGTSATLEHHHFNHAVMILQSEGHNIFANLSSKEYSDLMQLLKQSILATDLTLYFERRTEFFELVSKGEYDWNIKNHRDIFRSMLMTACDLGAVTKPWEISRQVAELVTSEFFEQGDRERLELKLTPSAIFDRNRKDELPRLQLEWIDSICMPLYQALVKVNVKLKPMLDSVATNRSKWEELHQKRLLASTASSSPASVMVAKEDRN
Cone cGMP-specific 3',5'-cyclic phosphodiesterase subunit alpha', sequence (P51160 whole entry): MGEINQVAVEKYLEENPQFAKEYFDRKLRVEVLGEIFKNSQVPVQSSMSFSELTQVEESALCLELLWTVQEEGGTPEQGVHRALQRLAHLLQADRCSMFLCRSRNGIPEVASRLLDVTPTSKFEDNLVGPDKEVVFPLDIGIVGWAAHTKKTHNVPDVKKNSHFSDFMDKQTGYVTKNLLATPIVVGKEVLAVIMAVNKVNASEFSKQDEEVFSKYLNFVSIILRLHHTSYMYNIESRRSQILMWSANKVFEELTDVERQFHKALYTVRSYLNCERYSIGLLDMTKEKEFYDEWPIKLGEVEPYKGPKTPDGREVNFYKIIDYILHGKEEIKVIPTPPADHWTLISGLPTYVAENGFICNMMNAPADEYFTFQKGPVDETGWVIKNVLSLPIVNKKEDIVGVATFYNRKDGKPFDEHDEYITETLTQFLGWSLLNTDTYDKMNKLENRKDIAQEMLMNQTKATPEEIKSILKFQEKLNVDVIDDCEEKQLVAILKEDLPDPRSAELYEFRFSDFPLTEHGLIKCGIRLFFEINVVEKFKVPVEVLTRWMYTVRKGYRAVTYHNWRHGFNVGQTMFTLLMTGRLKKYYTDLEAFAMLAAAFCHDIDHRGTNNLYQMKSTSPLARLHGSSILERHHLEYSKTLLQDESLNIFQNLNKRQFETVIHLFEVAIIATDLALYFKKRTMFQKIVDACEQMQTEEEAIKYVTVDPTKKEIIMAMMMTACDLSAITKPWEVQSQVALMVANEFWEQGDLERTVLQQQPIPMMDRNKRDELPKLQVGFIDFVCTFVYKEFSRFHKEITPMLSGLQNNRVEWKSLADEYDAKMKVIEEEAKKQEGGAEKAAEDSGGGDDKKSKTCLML

CCCOc1ccc(NC(=O)CN2CCN(C)CC2)cc1-c1nc(CC)c(CC)c(=O)[nH]1
half-life [1]: 2.82 h
half-life [2]: 4.89 h
AUC [3]: 514 ng·h/mL
Vd [4]: 3.83 L/kg
remaining at 0.5 h, 1 µM [5]: 91%
half-life [6]: 2.4 h
AUCt [7]: 495 ng·h/mL
IC50 (Phosphodiesterase 1): 3640 nM
AUCt [8]: 752 ng·h/mL
Activity (Rattus norvegicus [9]): Active
clearance [10]: 10.8 mL/min/kg
half-life [11]: 10.9 h
AUC [12]: 412 ng·h/mL
MRT [13]: 2.22 h
deltaH [14]: -21.5 kcal/mol
deltaG [15]: -9.81 kcal/mol
MRT [16]: 5.56 h
Cmax [17]: 43.9 ng/mL
Cmax [18]: 66.5 ng/mL
Activity (Rattus norvegicus [19]): Active
Tmax [20]: 2.8 h
Activity (Rattus norvegicus [21]): Active
Tmax [22]: 1.9 h
Vd [23]: 4.97 L/kg
bioavailability [24]: 67%
IC50 [25]: 19.8 nM
MRT [26]: 7.21 h
AUCt [27]: 403 ng·h/mL
Activity (Rattus norvegicus [28]): Active
Activity (Rattus norvegicus [29]): Active
AUC [30]: 284 ng·h/mL
clearance [31]: 37.7 mL/min/kg
-TdeltaS [32]: 11.7 kcal/mol
IC50 [33]: 998 nM
AUC [34]: 773 ng·h/mL
AUCt [35]: 268 ng·h/mL
MRT [36]: 6.07 h
Activity (Rattus norvegicus [37]): Active
bioavailability [38]: 66.4%
half-life [39]: 4.5 h
